4 molecules from ChEMBL document CHEMBL3526034 (Drug Metab Dispos, 2013) can be followed below.

Data set [1] can be described thus: Drug level in human urine treated with parent drug [14C]DTG at 20 mg, po. The format is ADME, tissue-based. To be noted: in vivo.
For another data set, the target named is Cytochrome P450 3A4 (Homo sapiens, UniProt P08684). Description: Drug level in supersomes expressing human recombinant CYP3A4 treated with [14C]DTG at 5 uM after 120 mins by radio-HPLC analysis. The format is ADME. To be noted: recombinant enzyme, 2 h.
Chain of Cytochrome P450 3A4 (P08684 whole entry): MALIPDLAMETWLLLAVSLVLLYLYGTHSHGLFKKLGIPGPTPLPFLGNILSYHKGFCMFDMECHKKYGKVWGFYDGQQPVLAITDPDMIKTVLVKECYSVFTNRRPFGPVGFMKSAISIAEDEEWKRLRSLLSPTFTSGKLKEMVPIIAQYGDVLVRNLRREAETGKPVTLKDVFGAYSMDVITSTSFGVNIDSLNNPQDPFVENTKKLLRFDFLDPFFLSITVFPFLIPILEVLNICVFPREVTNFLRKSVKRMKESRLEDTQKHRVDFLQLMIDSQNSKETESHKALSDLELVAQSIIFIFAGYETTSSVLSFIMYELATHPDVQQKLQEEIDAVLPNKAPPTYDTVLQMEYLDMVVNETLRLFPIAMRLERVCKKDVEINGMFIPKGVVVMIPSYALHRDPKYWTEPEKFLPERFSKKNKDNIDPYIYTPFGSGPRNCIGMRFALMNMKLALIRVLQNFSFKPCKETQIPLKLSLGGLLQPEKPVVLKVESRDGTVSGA
Data set [2] concerns the target T1, UDP-glucuronosyltransferase 1A1 (Homo sapiens, UniProt P22309).
T1 sequence (P22309 whole entry): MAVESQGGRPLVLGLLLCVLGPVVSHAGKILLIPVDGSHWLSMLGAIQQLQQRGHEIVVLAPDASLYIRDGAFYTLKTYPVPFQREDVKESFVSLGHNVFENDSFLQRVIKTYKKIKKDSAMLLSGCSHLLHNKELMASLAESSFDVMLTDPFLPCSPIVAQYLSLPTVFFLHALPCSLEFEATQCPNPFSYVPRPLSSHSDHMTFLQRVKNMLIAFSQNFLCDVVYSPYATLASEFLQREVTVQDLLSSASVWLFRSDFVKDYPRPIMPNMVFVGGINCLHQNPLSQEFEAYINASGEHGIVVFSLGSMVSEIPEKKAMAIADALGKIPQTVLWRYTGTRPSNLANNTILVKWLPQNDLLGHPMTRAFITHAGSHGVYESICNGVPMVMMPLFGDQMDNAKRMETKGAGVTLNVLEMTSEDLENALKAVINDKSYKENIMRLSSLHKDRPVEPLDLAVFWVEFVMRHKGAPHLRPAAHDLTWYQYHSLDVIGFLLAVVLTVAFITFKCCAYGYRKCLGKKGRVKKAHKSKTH
The data set is described as follows: Drug level assessed as UDPGA-fortified human recombinant UGT1A1-mediated compound formation treated with [14C]DTG at 16 uM after 120 mins by radio-HPLC analysis. The format is ADME. To be noted: recombinant enzyme, 2 h.

Data set [3] has as its target UDP-glucuronosyltransferase 1A3 (Homo sapiens, UniProt P35503). Description: Drug level assessed as UDPGA-fortified human recombinant UGT1A3-mediated compound formation treated with [14C]DTG at 16 uM after 120 mins by radio-HPLC analysis. The data set is classed as ADME. To be noted: recombinant enzyme, 2 h.
The test system of another data set is Hepatocyte. The data set is described as follows: Drug level in human hepatocytes treated with [14C]DTG at 50 uM after 4 to 20 hrs by radio-HPLC analysis. The data set is classed as ADME, cell-based.
The test system of data set [4] is Liver microsome. The data set is described as follows: Drug level in UDPGA-fortified human liver microsomes treated with [14C]DTG at 16 uM treated for 4 hrs by radio-HPLC analysis. The format is ADME. A general note: Liver microsomes are a subcellular fraction often used to study metabolism.
For data set [5], the target named is UDP-glucuronosyltransferase 1A9 (Homo sapiens, UniProt O60656). Description: Drug level assessed as UDPGA-fortified human recombinant UGT1A9-mediated compound formation treated with [14C]DTG at 16 uM after 120 mins by radio-HPLC analysis. The data set is classed as ADME. To be noted: recombinant enzyme, 2 h.
Chain of UDP-glucuronosyltransferase 1A9 (O60656 whole entry): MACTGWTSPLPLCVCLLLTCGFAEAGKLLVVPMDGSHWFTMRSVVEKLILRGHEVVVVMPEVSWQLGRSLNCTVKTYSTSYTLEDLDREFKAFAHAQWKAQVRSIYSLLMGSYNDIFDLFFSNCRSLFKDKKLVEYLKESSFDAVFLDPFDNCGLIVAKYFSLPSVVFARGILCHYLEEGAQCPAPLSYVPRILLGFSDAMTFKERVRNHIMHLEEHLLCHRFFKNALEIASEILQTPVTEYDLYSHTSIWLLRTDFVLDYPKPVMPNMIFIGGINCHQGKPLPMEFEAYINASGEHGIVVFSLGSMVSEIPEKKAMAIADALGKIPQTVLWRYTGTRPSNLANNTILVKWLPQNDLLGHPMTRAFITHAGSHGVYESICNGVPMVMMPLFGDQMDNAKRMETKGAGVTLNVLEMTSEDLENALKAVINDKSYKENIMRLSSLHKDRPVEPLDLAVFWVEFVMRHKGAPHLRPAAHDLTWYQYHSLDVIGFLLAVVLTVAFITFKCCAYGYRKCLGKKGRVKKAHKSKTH
Data set [6] concerns Liver microsome. Description: Drug level in human liver microsomes treated with [14C]DTG at 5 uM after 120 mins by radio-HPLC analysis. The conditions noted are these: 2 h. The data set is classed as ADME.
Substrate in data set [7]: C[C@@H]1CCO[C@H]2Cn3cc(C(=O)NCc4ccc(F)cc4F)c(=O)c(O)c3C(=O)N12
The data set is described as follows: Drug metabolism in UDPGA-fortified human liver microsomes assessed as UGT1A1-mediated DTG glucuronide M2 ((2S,3S,4S,5R,6S)-6-((4R,12aS)-9-(2,4-difluorobenzylcarbamoyl)-4-methyl-6,8-dioxo-3,4,6,8,12,12a-hexahydro-2H-[1,3]oxazino[3,2-d]pyrido[1,2-a]pyrazin-7-yloxy)-3,4,5-trihydroxytetrahydro-2H-pyran-2-carboxylic acid) formation after 120 mins by radio-HPLC analysis. The data set is classed as ADME.

Substrate in data set [8]: C[C@@H]1CCO[C@H]2Cn3cc(C(=O)NCc4ccc(F)cc4F)c(=O)c(O)c3C(=O)N12
Description: Drug metabolism assessed as human recombinant UGT1A1-mediated DTG glucuronide M2 ((2S,3S,4S,5R,6S)-6-((4R,12aS)-9-(2,4-difluorobenzylcarbamoyl)-4-methyl-6,8-dioxo-3,4,6,8,12,12a-hexahydro-2H-[1,3]oxazino[3,2-d]pyrido[1,2-a]pyrazin-7-yloxy)-3,4,5-trihydroxytetrahydro-2H-pyran-2-carboxylic acid) formation after 120 mins by radio-HPLC analysis. The data set is classed as ADME.

Chain of UDP-glucuronosyltransferase 1A3 (P35503 whole entry): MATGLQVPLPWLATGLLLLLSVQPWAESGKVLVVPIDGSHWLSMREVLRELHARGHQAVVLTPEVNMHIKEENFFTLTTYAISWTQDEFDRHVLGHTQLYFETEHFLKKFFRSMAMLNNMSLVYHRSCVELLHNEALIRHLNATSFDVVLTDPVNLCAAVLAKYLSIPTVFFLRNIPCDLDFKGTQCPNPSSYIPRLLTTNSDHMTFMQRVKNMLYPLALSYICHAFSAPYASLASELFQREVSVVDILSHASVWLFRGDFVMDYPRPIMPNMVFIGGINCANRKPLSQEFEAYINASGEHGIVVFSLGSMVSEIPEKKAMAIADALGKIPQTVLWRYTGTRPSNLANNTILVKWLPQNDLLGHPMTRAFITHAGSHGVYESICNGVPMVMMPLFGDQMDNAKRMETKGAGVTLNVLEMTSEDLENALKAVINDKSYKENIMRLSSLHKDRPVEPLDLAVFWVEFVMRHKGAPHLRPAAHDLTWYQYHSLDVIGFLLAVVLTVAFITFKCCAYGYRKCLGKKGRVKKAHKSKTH

As for `C[C@@H]1CCO[C@H]2Cn3cc(C(N)=O)c(=O)c(O)c3C(=O)N12`, the Drug excretion in [1] was 3.6%. Besides, the Drug metabolism entry at Cytochrome P450 3A4 is on record as “metabolite_detected”.

For `C[C@@H]1CCO[C@H]2Cn3cc(C(=O)NCc4ccc(F)cc4F)c(=O)c(O[C@@H]4O[C@H](C(=O)O)[C@@H](O)[C@H](O)[C@H]4O)c3C(=O)N12`, the Drug excretion in data set [1] worked out at 18.9%. In addition, the Drug metabolism result (in data set [2]; in data set [3]; with Hepatocyte; in the data set with Liver microsome [4]; in data set [5]) was “metabolite_detected” throughout.

In the case of `C[C@@H]1CCO[C@H]2Cn3cc(C(=O)NC(O)c4ccc(F)cc4F)c(=O)c(O)c3C(=O)N12` (some centres not stated), in [1], the Drug excretion is 3%. In addition, the Drug metabolism entry with Liver microsome [6] is reported as “metabolite_detected”.

B1: UDP-glucuronosyltransferase 1A1 (Homo sapiens) (protein)
chain: MAVESQGGRPLVLGLLLCVLGPVVSHAGKILLIPVDGSHWLSMLGAIQQLQQRGHEIVVLAPDASLYIRDGAFYTLKTYPVPFQREDVKESFVSLGHNVFENDSFLQRVIKTYKKIKKDSAMLLSGCSHLLHNKELMASLAESSFDVMLTDPFLPCSPIVAQYLSLPTVFFLHALPCSLEFEATQCPNPFSYVPRPLSSHSDHMTFLQRVKNMLIAFSQNFLCDVVYSPYATLASEFLQREVTVQDLLSSASVWLFRSDFVKDYPRPIMPNMVFVGGINCLHQNPLSQEFEAYINASGEHGIVVFSLGSMVSEIPEKKAMAIADALGKIPQTVLWRYTGTRPSNLANNTILVKWLPQNDLLGHPMTRAFITHAGSHGVYESICNGVPMVMMPLFGDQMDNAKRMETKGAGVTLNVLEMTSEDLENALKAVINDKSYKENIMRLSSLHKDRPVEPLDLAVFWVEFVMRHKGAPHLRPAAHDLTWYQYHSLDVIGFLLAVVLTVAFITFKCCAYGYRKCLGKKGRVKKAHKSKTH
With B1, the Michaelis-Menten constant (Km) stood at 149 µM in data set [7] and 21 µM in [8].

By Km is commonly meant the concentration of substrate that gives half-maximal velocity.
